Experimental data reported in paper PMC12461739, “Multi-targeted azacoumarin–cyanocinnamate hybrids induce G2/M arrest and apoptosis via tubulin, and COX-2/VEGFR modulation: insights from in vitro mechanistic basis and in vivo validation” (RSC Medicinal Chemistry, 2025).
“And” between values parts separate entries of the source, which are not always exact repeats. Equal entries are not always repeated.

Assays:
[1] = target: T1, COX-1 (Ovis aries, UniProt P05979); assay: COX-1 inhibitor screening (fluorometric); assay type: biochemical; details: read-out: IC50 toward COX-1
T1 construct: purchased BioVision K548-100
T1 sequence (P05979 25-600): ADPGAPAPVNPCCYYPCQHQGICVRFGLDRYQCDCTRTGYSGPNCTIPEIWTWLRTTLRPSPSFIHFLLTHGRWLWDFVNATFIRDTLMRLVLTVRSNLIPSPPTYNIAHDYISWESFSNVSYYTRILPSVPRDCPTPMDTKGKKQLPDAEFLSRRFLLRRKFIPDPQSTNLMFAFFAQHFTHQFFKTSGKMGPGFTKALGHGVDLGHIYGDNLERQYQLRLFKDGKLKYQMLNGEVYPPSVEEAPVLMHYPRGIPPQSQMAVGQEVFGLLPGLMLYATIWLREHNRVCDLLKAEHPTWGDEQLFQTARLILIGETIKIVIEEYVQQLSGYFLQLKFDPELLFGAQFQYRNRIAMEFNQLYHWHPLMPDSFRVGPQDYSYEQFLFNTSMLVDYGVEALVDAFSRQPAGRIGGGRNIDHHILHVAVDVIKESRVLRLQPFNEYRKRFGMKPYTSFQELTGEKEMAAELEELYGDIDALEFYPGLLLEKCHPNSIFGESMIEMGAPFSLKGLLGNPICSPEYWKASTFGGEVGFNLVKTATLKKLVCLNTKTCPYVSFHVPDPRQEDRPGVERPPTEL
Experimental: COX-1 and COX-2 enzymes were reconstituted in sterile water (110 μL) and kept on ice until use. Arachidonic acid was activated by mixing 5 μL with 5 μL of NaOH, followed by a 10-fold dilution with water and vortexing. A reaction mixture (80 μL per well) was prepared by combining 76 μL of assay buffer, 1 μL of COX probe, 2 μL of 200-fold diluted COX cofactor, and 1 μL of COX-1 or COX-2 enzyme. This mix was added to each well, followed by 10 μL of the prepared arachidonic acid/NaOH solution to initiate the reaction. Fluorescence was recorded at 25 °C using a microplate reader. The percent inhibition was determined by comparing the fluorescence increase in treated wells relative to the enzyme control. IC50 values were calculated from the concentration–response curves using GraphPad Prism.

[2] = Acute toxicity and lethal dose determination; assay type: in vivo, Swiss albino mice; details: mice, i.p., 48 hour observation
Experimental: In the first phase, animals were injected with low doses (1, 1.5, 2, 2.5, 3, 3.5, 4, 6, 8, and 10 mg kg^−1) and observed for 24 hours. Since no mortality was observed, a second set of animals was treated with higher doses (15, 25, 50, 75, 100, and 200 mg kg^−1), with continuous monitoring for 48 hours post-injection. Control animals received sterile saline solution only. All mice were carefully observed for signs of toxicity, behavioral changes (e.g., grooming, feeding, and locomotion), and mortality. The maximum tolerated dose (LD0) was defined as the highest dose at which no mortality or significant toxic symptoms were observed, while the lethal dose (LD100) was identified as the dose at which all animals succumbed. These values were used to establish safe dosing limits for subsequent in vivo pharmacological and biochemical experiments.

[3] = tested on: MCF-7 cells; assay: Annexin V-FITC/PI apoptosis assay; assay type: cell-based, human; details: MCF-7, IC50 concentration, 24 h
Experimental: Apoptotic cell death was quantified using annexin V-FITC and propidium iodide (PI) staining, in accordance with the manufacturer's instructions (BioVision, USA; Cat No. K101-25), with minor protocol adjustments. MCF-7 cells were plated at a density of 2 × 10^5 cells per well in DMEM-containing supplements and incubated overnight at 37 °C in a humidified atmosphere with 5% CO2. […] After treatment, cells were harvested using 0.25% trypsin–EDTA, rinsed twice with ice-cold phosphate-buffered saline (PBS), and resuspended in 500 μL of annexin V binding buffer. To each sample, 5 μL of annexin V-FITC and 5 μL of propidium iodide (PI) were then added for staining. The staining mixture was incubated in the dark for 15 minutes at room temperature. Samples were analyzed on a BD FACSCalibur™ flow cytometer (BD Biosciences, USA). Fluorescence was detected using the FL1 channel (530 nm) for annexin V-FITC and the FL2 channel (585 nm) for PI. Quadrant gating was used to distinguish between viable cells (annexin V^−/PI^−), early apoptotic cells (annexin V^+/PI^−), late apoptotic cells (annexin V^+/PI^+), and necrotic cells (annexin V^−/PI^+).

[4] = tested on: MCF-10A cells; assay: MTT cytotoxicity assay, MCF-10A; assay type: cell-based, human
Experimental: (§1) The cytotoxic effects of the synthesized compounds were evaluated using the MTT assay. […] Following incubation, cells were treated with serial dilutions of the test compounds prepared in DMSO. The final concentration of DMSO in all wells, including controls, was maintained below 0.5% v/v to avoid solvent-related cytotoxicity. Doxorubicin was used as a positive control for comparison of antiproliferative activity. Following 48 hours of treatment, the culture medium was gently removed, and each well received 20 μL of MTT reagent (5 mg mL^−1 in phosphate-buffered saline). The plates were incubated at 37 °C for 4 hours to facilitate the enzymatic reduction of MTT into formazan by metabolically active cells. After incubation, the solution was discarded, and 100 μL of dimethyl sulfoxide was added. The absorbance of each well was measured at 570 nm using a microplate spectrophotometer. Cell viability was determined by comparing absorbance values to those of the untreated controls and expressed as a percentage. GraphPad Prism software was used to plot dose–response curves and calculate IC50 values.

[5] = MTT cytotoxicity assay, MCF-10A; assay type: cell-based, human; details: human, MCF-10A non-tumorigenic breast epithelial cells, MTT, 48 h treatment, non-tumorigenic breast epithelial cells; read-out: IC50, cytotoxicity toward MCF-10A
Experimental: as §1

For CCOC(=O)/C(C#N)=C/c1ccc(Oc2c(C)c3cc(Br)c(O)c(Br)c3[nH]c2=O)cc1 [Compound 7, ethyl (E)-2-cyano-3-(4-((6,8-dibromo-7-hydroxy-4-methyl-2-oxo-1,2-dihydroquinolin-3-yl)oxy)phenyl)acrylate], the IC50 [1] was 7.49 µM and 7.5 µM, the MTD at 48 h ([2]; Swiss albino, mouse, in vivo, ip, read-out: maximum tolerated dose (LD0)) was 100 mg/kg and the “approximate lethal dose (LD100)” value [2] was roughly 200 mg/kg. The late apoptotic cells ([3]; control 0.12%) was 8.41%, the early apoptotic cells ([3]; control 0.37%) was 15.36% and the necrotic cell population ([3]; control 2.22%) was 3.57%. The “selectivity index toward breast cancer cells” value ([4]; MCF-10A vs MCF-7 / MDA-MB 231) was 5.3 to 6.8, the IC50 ([4]; MTT, 48 h treatment, non-tumorigenic breast epithelial cells, read-out: IC50, cytotoxicity toward MCF-10A) was 52.1 ± 1.76 µM and the IC50 at 48 h [5] was 52 µM.
